Assay results reported in PubChem BioAssay AID493095 (Sanford-Burnham Center for Chemical Genomics, 2011).

Experiment: HIV fusion inhibitor analogs, peptide binding, SAR follow-up, biochemical, set 2, fluorescence quenching (AID 493095)
Conditions: cell-free peptide binding, 30 min

**Q.** With `CS(=O)(=O)C1=NSC2=NC(=O)/C(=C\c3cccn3-c3cccc(C(F)(F)F)c3)C(=N)N21` as the compound, how does the IC50 read?
**A.** 5.8 µM

**Q.** Which IC50 does the source give for `O=C(O)CCCN1C(=O)/C(=C/c2cc3ccccc3o2)SC1=S` here?
**A.** 10.8 µM

**Q.** For `O=C(O)CCCN1C(=O)/C(=C/c2ccc(-c3cccc(C(F)(F)F)c3)o2)SC1=S`, which IC50 is on record?
**A.** 5.43 µM

**Q.** For `O=C(O)CCCN1C(=O)/C(=C\c2ccc(-c3ccc(Br)cc3)o2)SC1=S`, which IC50 is on record?
**A.** 3.26 µM

**Q.** For `CS(=O)(=O)C1=NSC2=NC(=O)/C(=C\c3cccn3-c3ccc(F)cc3)C(=N)N21`, which IC50 is on record?
**A.** 9.41 µM

**Q.** With `CS(=O)(=O)C1=NSC2=NC(=O)/C(=C\c3cccn3-c3cccc(F)c3)C(=N)N21` as the compound, how does the IC50 read?
**A.** 3.71 µM

**Q.** Which IC50 does the source give for `CCOC(=O)C1=C(C)N=c2sc(=Cc3ccc(OCC(=O)O)cc3)c(=O)n2C1c1ccc(F)cc1` (centres undefined) here?
**A.** 6.28 µM

**Q.** For `COc1ccc(-n2cccc2/C=C2/C(=N)N3C(=NC2=O)SN=C3S(C)(=O)=O)cc1Cl`, which IC50 is on record?
**A.** 12.2 µM

**Q.** Which IC50 does the source give for `Cc1ccc(-n2cccc2/C=C2/C(=N)N3C(=NC2=O)SN=C3S(C)(=O)=O)cc1C` here?
**A.** 5.98 µM

**Q.** Which IC50 does the source give for `O=C(O)c1ccc([C@@H]2Nc3ccc(S(=O)(=O)Nc4cccc5ccccc45)cc3[C@@H]3C=CC[C@@H]32)cc1` here?
**A.** 17.3 µM

**Q.** Which IC50 does the source give for `O=C(O)CCCN1C(=O)/C(=C/c2ccc(-c3ccc(Cl)c(Cl)c3)o2)SC1=S` here?
**A.** 28.9 µM

**Q.** For `CCOC(=O)C1=C(C)N=c2s/c(=C\c3ccc(OCC(=O)O)cc3)c(=O)n2C1c1ccc(Cl)cc1` (centres undefined), which IC50 is on record?
**A.** 8.89 µM

**Q.** Which IC50 does the source give for `O=C(O)CCCN1C(=O)/C(=C\c2ccc(-c3ccc(Cl)cc3)o2)SC1=S` here?
**A.** 44.8 µM

**Q.** For `CS(=O)(=O)C1=NSC2=NC(=O)/C(=C\c3cccn3-c3ccc(Cl)c(Cl)c3)C(=N)N21`, which IC50 is on record?
**A.** 6.55 µM

**Q.** For `O=C(O)CCCN1C(=O)/C(=C\c2ccc(-c3ccc(F)cc3)o2)SC1=S`, which IC50 is on record?
**A.** 11.1 µM

**Q.** For `CCOC(=O)C1=C(C)N=c2sc(=Cc3ccc(OCC(=O)O)cc3)c(=O)n2C1c1ccccc1OC` (centres undefined), which IC50 is on record?
**A.** 31.6 µM

**Q.** For `COc1ccccc1NS(=O)(=O)c1ccc2c(c1)C1C=CCC1C(c1ccc(C(=O)O)cc1)N2` (centres undefined), which IC50 is on record?
**A.** 69.1 µM

**Q.** For `CS(=O)(=O)C1=NSC2=NC(=O)/C(=C\c3cccn3-c3ccc(Cl)cc3)C(=N)N21`, which IC50 is on record?
**A.** 25.2 µM

**Q.** For `Cc1c2c(=O)n(-c3nc4ccccc4s3)nc-2cc(O)n1Cc1ccccc1Cl`, which IC50 is on record?
**A.** 7.69 µM

**Q.** With `Cc1ccc(-n2cccc2/C=C2/C(=N)N3C(=NC2=O)SN=C3S(C)(=O)=O)cc1` as the compound, how does the IC50 read?
**A.** 6.24 µM

**Q.** Which IC50 does the source give for `CS(=O)(=O)C1=NSC2=NC(=O)/C(=C\c3cccn3-c3cc(Cl)cc(Cl)c3)C(=N)N21` here?
**A.** 30 µM

**Q.** With `COc1cccc(C2C(C(=O)Nc3ccccc3)=C(C)N=c3sc(=Cc4ccc(OCC(=O)O)cc4)c(=O)n32)c1` (centres undefined) as the compound, how does the IC50 read?
**A.** 8.05 µM

**Q.** With `CCOC(=O)C1=C(c2ccccc2)N=c2s/c(=C\c3ccc(OCC(=O)O)cc3)c(=O)n2C1c1cccc(OC)c1` (centres undefined) as the compound, how does the IC50 read?
**A.** 7.41 µM

**Q.** For `COc1ccc(-c2ccc(/C=C3\SC(=S)N(CCCC(=O)O)C3=O)o2)cc1`, which IC50 is on record?
**A.** 12.9 µM

**Q.** For `O=C(O)c1ccc(C2Nc3ccc(S(=O)(=O)Nc4cc(Cl)ccc4Cl)cc3C3C=CCC32)cc1` (centres undefined), which IC50 is on record?
**A.** 48.2 µM

**Q.** For `CCOC(=O)C1=C(C)N=c2sc(=Cc3ccc(OCC(=O)O)cc3)c(=O)n2C1c1ccc(OC)cc1OC` (centres undefined), which IC50 is on record?
**A.** 20.2 µM

**Q.** For `CS(=O)(=O)C1=NSC2=NC(=O)/C(=C\c3cccn3-c3ccc(Br)cc3)C(=N)N21`, which IC50 is on record?
**A.** 5.36 µM

**Q.** Which IC50 does the source give for `CCOc1ccc(-n2cccc2/C=C2/C(=N)N3C(=NC2=O)SN=C3S(C)(=O)=O)cc1` here?
**A.** 40.3 µM

**Q.** With `CCc1ccc(-n2cccc2/C=C2/C(=N)N3C(=NC2=O)SN=C3S(C)(=O)=O)cc1` as the compound, how does the IC50 read?
**A.** 53 µM

**Q.** Which IC50 does the source give for `CS(=O)(=O)C1=NSC2=NC(=O)/C(=C\c3cccn3-c3cccc(Cl)c3)C(=N)N21` here?
**A.** 9.16 µM

**Q.** For `O=C(O)CCCN1C(=O)/C(=C\c2ccc(-c3cccc(Cl)c3)o2)SC1=S`, which IC50 is on record?
**A.** 4.27 µM

**Q.** With `CCOC(=O)C1=C(C)N=c2s/c(=C\c3ccc(OCC(=O)O)cc3)c(=O)n2C1c1ccc(OC)c(OCC)c1` (centres undefined) as the compound, how does the IC50 read?
**A.** 22.9 µM

**Q.** For `O=C(O)c1ccc(C[n+]2c(-c3ccc([N+](=O)[O-])cc3)csc2Nc2ccccc2)cc1`, which IC50 is on record?
**A.** 15.4 µM

**Q.** With `CCOC(=O)C1=C(C)N=c2sc(=Cc3ccc(OCC(=O)O)cc3)c(=O)n2C1c1cc(OC)c(OC)c(OC)c1` (centres undefined) as the compound, how does the IC50 read?
**A.** 7.82 µM

**Q.** With `CCOC(=O)C1=C(C)N=c2sc(=Cc3ccc(OCC(=O)O)cc3)c(=O)n2C1c1ccccc1` (centres undefined) as the compound, how does the IC50 read?
**A.** 19.6 µM

**Q.** For `COc1ccc(CCn2c(O)cc3nn(-c4nc5ccccc5s4)c(=O)c-3c2C)cc1`, which IC50 is on record?
**A.** 5.6 µM

**Q.** For `COc1cccc(-n2cccc2/C=C2/C(=N)N3C(=NC2=O)SN=C3S(C)(=O)=O)c1`, which IC50 is on record?
**A.** 6.31 µM

**Q.** For `CC1=C(C(=O)OC(C)C)C(c2ccc(Cl)cc2)n2c(s/c(=C\c3ccc(OCC(=O)O)cc3)c2=O)=N1` (centres undefined), which IC50 is on record?
**A.** 19.1 µM

**Q.** With `O=C(O)CCC(C(=O)O)N1C(=O)/C(=C\c2ccco2)SC1=S` (centres undefined) as the compound, how does the IC50 read?
**A.** 1.38 µM
